From PubChem BioAssay AID743134 (The Scripps Research Institute Molecular Screening Center, 2013)
Calls of active or inactive are those of the source.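 Rule for the calls: active = compound cutting LYPLA1 and LYPLA2 activity by half or more in mouse liver, kidney or brain after 5 mg/kg; inactive = the rest.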

Target: Acyl-protein thioesterase 1 (Mus musculus) (UniProt P97823)
Test: APT1 inhibition after dosing, tissue ABPP readout – mouse liver, brain, kidney proteomes, fluorescence gel, in vivo study for LYPLA1/LYPLA2 inhibitor project, late-stage follow-up (AID 743134)
Settings: C57BL6 mice i.p., tissue gel-based ABPP FP-Rh, 4 h

Sequence of Acyl-protein thioesterase 1 (Mus musculus) (P97823 whole entry, looked up): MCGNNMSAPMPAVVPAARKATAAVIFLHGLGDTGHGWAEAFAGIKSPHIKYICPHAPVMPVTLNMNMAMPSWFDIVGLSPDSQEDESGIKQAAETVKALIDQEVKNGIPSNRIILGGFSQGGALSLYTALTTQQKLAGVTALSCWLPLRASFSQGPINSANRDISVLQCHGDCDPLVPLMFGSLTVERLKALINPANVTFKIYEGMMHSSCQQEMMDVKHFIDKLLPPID

## O=C(ON1C(=O)C2CN(C(=O)N3CCOCC3)CCN2C1=O)N1CCC(CCc2ccc(Cl)cc2)CC1 (stereo not drawn)
Brain soluble proteome
  outcome: inactive
Kidney soluble proteome
  outcome: active
Liver soluble proteome
  outcome: active
